Each structure is given as a SMILES string. Where a name gives a salt, the structure may show the parent alone. Read-outs that look alike come from different tables or passages of the source.

One experiment deals with MELK (Homo sapiens, UniProt Q14680). As to the kind of experiment: Kinase assay: MELK activity, phosphorylation of FITC-labeled histone H3 peptide measured by IMAP fluorescence polarization. It counts as biochemical. Particulars: read-out: IC50 (μM) (kinase assay). Summed up:
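Kinase reactions ran with or without test compound (final DMSO 1%) on a fluorescein-tagged H3 peptide. Progressive binding solution was added to terminate them. After a half-hour room-temperature incubation, polarization was measured.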

The subject of the next experiment is HT-1197 cells. As to the kind of experiment: Cell-based assay: anti-proliferative activity, Cell Counting Kit-8, 72 hours (HT-1197, negative control without MELK expression). Particulars: 72 hours. The procedure, abridged:
(§1)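 First, lysates underwent western blotting with anti-MELK antibody to establish expression. Next, cells went into 96-well plates. Then candidate inhibitors were added. Finally, viability was determined by CCK-8 at 72 h and IC50 computed.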

For another experiment, the system named is T47D cells. As to the kind of experiment: Cell-based assay: anti-proliferative activity, Cell Counting Kit-8, 72 hours (T47D). The procedure, abridged:
as §1
(Tetrazolium dyes change colour on reduction, which living cells bring about.)

The subject of experiment [1] is DU4475 cells. In words: Cell-based assay: anti-proliferative activity, Cell Counting Kit-8, 72 hours (DU4475).
The subject of a further experiment is A549 cells. As to the kind of experiment: Cell-based assay: anti-proliferative activity, Cell Counting Kit-8, 72 hours (A549). Particulars: 72 hours. Summed up:
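A549 cells were seeded in 96-well plates and exposed to candidate inhibitors for 72 hours. Cell growth was then measured with Cell Counting Kit-8, and IC50 values were calculated from the resulting growth data.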

Experiment [2] concerns DU4475 cells. In words: Cell-based assay: anti-proliferative activity, Cell Counting Kit-8, 72 hours (DU4475). Particulars: Homo sapiens, DU-4475, 72 h.
Setting [3] is: Homo sapiens, HT1197, 72 h, HT1197 cells (negative control).
[4] abbreviates: Homo sapiens, HT1197, 72 h, HT1197 cells (negative control, no MELK expression).

MELK, sequence (Q14680 whole entry, looked up): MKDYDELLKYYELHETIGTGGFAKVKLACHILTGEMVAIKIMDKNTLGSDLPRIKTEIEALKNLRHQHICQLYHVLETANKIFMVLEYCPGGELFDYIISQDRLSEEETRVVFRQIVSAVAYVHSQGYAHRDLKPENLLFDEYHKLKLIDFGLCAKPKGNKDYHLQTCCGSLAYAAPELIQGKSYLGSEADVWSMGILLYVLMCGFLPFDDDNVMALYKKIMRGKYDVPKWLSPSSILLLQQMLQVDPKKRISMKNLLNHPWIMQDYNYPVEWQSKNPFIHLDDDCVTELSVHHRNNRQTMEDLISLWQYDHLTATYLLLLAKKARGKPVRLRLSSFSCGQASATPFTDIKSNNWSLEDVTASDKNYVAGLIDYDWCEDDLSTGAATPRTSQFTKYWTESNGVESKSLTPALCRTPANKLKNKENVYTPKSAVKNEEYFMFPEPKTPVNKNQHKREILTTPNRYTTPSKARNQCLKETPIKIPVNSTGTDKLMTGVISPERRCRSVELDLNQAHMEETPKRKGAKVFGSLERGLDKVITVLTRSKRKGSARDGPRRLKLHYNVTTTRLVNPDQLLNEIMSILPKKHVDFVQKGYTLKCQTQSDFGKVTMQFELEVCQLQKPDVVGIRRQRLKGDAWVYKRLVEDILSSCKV

Take `CCCC(=O)c1cnc2ccc(-c3cc(Cl)c(O)c(Cl)c3)cc2c1Nc1ccc(CN(C)C)cc1` [Example 530, 1-(6-(3,5-dichloro-4-hydroxyphenyl)-4-((4-((dimethylamino)methyl)phenyl)amino)quinolin-3-yl)butan-1-one]: the half-inhibitory concentration (IC50) (in general, the concentration needed to halve the response being measured) on MELK was 0.0045 µM; with HT-1197 cells (setting [3]) it was 1.2 µM; with T47D cells (Homo sapiens, T47D, 72 h), 0.07 µM; in the experiment with DU4475 cells [1] (Homo sapiens, DU-4475, 72 h), 0.086 µM; with A549 cells (Homo sapiens, A549, 72 h), 0.15 µM.

With `CN[C@H]1CC[C@H](Nc2c(C(=O)C3CC3)cnc3ccc(-c4cc(Cl)c(O)c(Cl)c4)cc23)CC1` [Example 510, Cyclopropyl{6-(3,5-dichloro-4-hydroxyphenyl)-4-[trans-4-(methylamino)cyclohexylamino]quinolin-3-yl}methanone], the half-inhibitory concentration (IC50) at MELK was found to be 0.0019 µM; with HT-1197 cells (setting [3]) it was 1 µM; in the experiment with T47D cells (Homo sapiens, T47D, 72 h), 0.054 µM; in the experiment on DU4475 cells [1] (Homo sapiens, DU-4475, 72 h) it was 0.018 µM; in the experiment with A549 cells (Homo sapiens, A549, 72 h), 0.12 µM.

For `CCCC(=O)c1cnc2ccc(-c3cc(Cl)c(O)c(Cl)c3)cc2c1Nc1ccc(CN(C)C)cc1` [Example 531, 1-(6-(3,5-dichloro-4-hydroxyphenyl)-4-((4-((dimethylamino)methyl)phenyl)amino)quinolin-3-yl)butan-1-one dihydrochloride], the IC50 at MELK (dihydrochloride) was determined as 0.0052 µM; in the experiment with HT-1197 cells (HT1197 cells (negative control), dihydrochloride) it was 1.3 µM; with T47D cells (72 hours, dihydrochloride), 0.11 µM; in the experiment with DU4475 cells [1] (dihydrochloride) it was 0.072 µM; with A549 cells (dihydrochloride), 0.18 µM.

For the molecule `CCCC(=O)c1cnc2ccc(-c3cc(Cl)c(O)c(OC)c3)cc2c1Nc1ccc(N2CCNCC2)nc1` [Example 617, 1-(6-(3-chloro-4-hydroxy-5-methoxyphenyl)-4-(6-(piperazin-1-yl)pyridin-3-ylamino)quinolin-3-yl)butan-1-one], the half-inhibitory concentration (IC50) at MELK came to 0.0042 µM; in the experiment with HT-1197 cells (setting [3]), 1.7 µM; with T47D cells (Homo sapiens, T47D, 72 h), 0.33 µM; in the experiment with DU4475 cells [1] (Homo sapiens, DU-4475, 72 h), 0.32 µM; in the experiment with A549 cells (Homo sapiens, A549, 72 h), 0.19 µM.

For `CN(CC#N)C[C@H]1CC[C@@H](Nc2c(C(=O)C3CC3)cnc3ccc(-c4cc(F)c(O)c(Cl)c4)cc23)CC1` [Example 524, 2-((((1R,4R)-4-(6-(3-Chloro-5-fluoro-4-hydroxyphenyl)-3-(cyclopropanecarbonyl)quinolin-4-ylamino)cyclohexyl)methyl)(methyl)amino)acetonitrile], the 50% inhibitory concentration (IC50) on MELK was 0.01 µM; in the experiment with HT-1197 cells (setting [3]), 1.7 µM; in the experiment with T47D cells (Homo sapiens, T47D, 72 h), 0.2 µM; in the experiment with DU4475 cells [1] (Homo sapiens, DU-4475, 72 h), 0.1 µM; in the experiment with A549 cells (Homo sapiens, A549, 72 h), 0.39 µM.

Turning to `NC1CCN(c2ccc(Nc3c(C(=O)C4CC4)cnc4ccc(-c5cc(Cl)c(O)c(Cl)c5)cc34)cn2)CC1` [Example 549, (4-(6-(4-Aminopiperidin-1-yl)pyridin-3-ylamino)-6-(3,5-dichloro-4-hydroxyphenyl)quinolin-3-1)(cyclopropyl)methanone hydrochloride], the IC50 on MELK (hydrochloride) is 0.0027 µM; with HT-1197 cells (HT1197 cells (negative control), hydrochloride), 3.2 µM; with T47D cells (72 hours, hydrochloride), 0.15 µM; with DU4475 cells [1] (hydrochloride), 0.078 µM; in the experiment on A549 cells (hydrochloride), 0.48 µM.

`COc1cc(-c2ccc3ncc(C(=O)C(C)C)c(N[C@H]4CC[C@H](CN(C)C)CC4)c3c2)cc(Cl)c1O` [Example 606]: the half-maximal inhibitory concentration (IC50) on MELK worked out at 0.0063 µM; in the experiment on HT-1197 cells (setting [3]), 1.1 µM; in the experiment on T47D cells (Homo sapiens, T47D, 72 h) it was 0.65 µM; in the experiment on DU4475 cells [1] (Homo sapiens, DU-4475, 72 h) it was 0.34 µM; in the experiment with A549 cells (Homo sapiens, A549, 72 h) it was 0.65 µM.

Consider `NC1CCN(c2ccc(Nc3c(C(=O)C4CC4)cnc4ccc(-c5cc(F)c(O)c(Cl)c5)cc34)cn2)C1` (stereo not shown) [Example 576, (4-(6-(3-aminopyrrolidin-1-yl)pyridin-3-ylamino)-6-(3-chloro-5-fluoro-4-hydroxyphenyl)quinolin-3-yl)(cyclopropyl)methanone], for which the concentration for half-maximal inhibition (IC50) at MELK was 0.0019 µM; in the experiment with HT-1197 cells (setting [3]) it was 0.53 µM; in the experiment with T47D cells (Homo sapiens, T47D, 72 h), 0.0094 µM; in the experiment on DU4475 cells [1] (Homo sapiens, DU-4475, 72 h), 0.012 µM; with A549 cells (Homo sapiens, A549, 72 h) it was 0.026 µM.

Take `COc1cc(-c2ccc3ncc(C(=O)C4CC4)c(Nc4ccc(NC5CCCNC5)nc4)c3c2)cc(Cl)c1O` (stereo not shown) [Example 609, (6-(3-chloro-4-hydroxy-5-methoxyphenyl)-4-(6-(piperidin-3-ylamino)pyridin-3-ylamino)quinolin-3-yl)(cyclopropyl)methanone]: the concentration for half-maximal inhibition (IC50) at MELK was 0.0025 µM; with HT-1197 cells (setting [3]), 3.9 µM; in the experiment on T47D cells (Homo sapiens, T47D, 72 h) it was 0.22 µM; with DU4475 cells [1] (Homo sapiens, DU-4475, 72 h) it was 0.34 µM; with A549 cells (Homo sapiens, A549, 72 h), 0.68 µM.

As to `CN(C)Cc1cccc(Nc2c(C(=O)C3CC3)cnc3ccc(-c4cc(Cl)c(O)c(Cl)c4)cc23)c1` [Example 624, cyclopropyl(6-(3,5-dichloro-4-hydroxyphenyl)-4-(3-((dimethylamino)methyl)phenylamino)quinolin-3-yl)methanone], the IC50 at MELK is 0.0016 µM; with HT-1197 cells (setting [3]), 3 µM; with T47D cells (Homo sapiens, T47D, 72 h), 0.55 µM; in the experiment with DU4475 cells [1] (Homo sapiens, DU-4475, 72 h), 0.043 µM; in the experiment with A549 cells (Homo sapiens, A549, 72 h) it was 0.089 µM.

In the case of `CCCC(=O)c1cnc2ccc(-c3cc(F)c(O)c(Cl)c3)cc2c1Nc1ccc(CN(C)C)cc1` [Example 537, 1-(6-(3-chloro-5-fluoro-4-hydroxyphenyl)-4-((4-((dimethylamino)methyl)phenyl)amino)quinolin-3-yl)butan-1-one], the IC50 was determined as 0.016 µM at MELK; 0.94 µM in the experiment on HT-1197 cells (setting [3]); 0.11 µM in the experiment with T47D cells (Homo sapiens, T47D, 72 h); 0.098 µM in the experiment on DU4475 cells [1] (Homo sapiens, DU-4475, 72 h); 0.15 µM in the experiment with A549 cells (Homo sapiens, A549, 72 h).

Turning to `CN1CCN(C[C@H]2CC[C@H](Nc3c(C(=O)C4CC4)cnc4ccc(-c5cc(Cl)c(O)c(Cl)c5)cc34)CC2)CC1` [Example 618], the IC50 was determined as 2.3 µM in the experiment with HT-1197 cells (setting [3]); 0.23 µM with T47D cells (Homo sapiens, T47D, 72 h); 0.12 µM in the experiment with DU4475 cells [1] (Homo sapiens, DU-4475, 72 h); 0.21 µM in the experiment with A549 cells (Homo sapiens, A549, 72 h).

Turning to `CN[C@H]1CC[C@H](n2cc(Nc3c(C(=O)C4CC4)cnc4ccc(-c5cc(Cl)c(O)c(Cl)c5)cc34)cn2)CC1` [Example 705, Cyclopropyl{6-(3,5-dichloro-4-hydroxyphenyl)-4-[1-(trans-4-(methylamino)cyclohexyl)-1H-pyrazol-4-ylamino]quinolin-3-yl}methanone], the 50% inhibitory concentration (IC50) at MELK came out at 0.0017 µM; in the experiment with HT-1197 cells (setting [4]), 10 µM; in the experiment with DU4475 cells [2], 0.072 µM; in the experiment on T47D cells (Homo sapiens, T47D, 72 h), 0.24 µM; in the experiment on A549 cells (Homo sapiens, A549, 72 h), 1.7 µM.

Turning to `CCC(=O)c1cnc2ccc(-c3cc(Cl)c(O)c(Cl)c3)cc2c1N[C@H]1CC[C@H](CN(C)C)CC1` [Example 715, 1-(6-(3,5-dichloro-4-hydroxyphenyl)-4-((trans-4-((dimethylamino)methyl)cyclohexyl)amino)quinolin-3-yl)propan-1-one], the half-maximal inhibitory concentration (IC50) on MELK came to 0.0015 µM; in the experiment with HT-1197 cells (setting [4]) it was 0.84 µM; in the experiment with DU4475 cells [2], 0.046 µM; in the experiment on T47D cells (Homo sapiens, T47D, 72 h), 0.087 µM; with A549 cells (Homo sapiens, A549, 72 h) it was 0.11 µM.

Take `O=C(c1cnc2ccc(-c3cc(Cl)c(O)c(Cl)c3)cc2c1NC1CCNCC1)C1CC1` [Example 726, cyclopropyl(6-(3,5-dichloro-4-hydroxypheny)-4-(piperidin-4-ylamino)quinolin-3-yl)methanone]: the half-maximal inhibitory concentration (IC50) on MELK turned out to be 0.0057 µM; in the experiment with HT-1197 cells (setting [4]), 2.4 µM; in the experiment on DU4475 cells [2], 0.14 µM; in the experiment with T47D cells (Homo sapiens, T47D, 72 h), 0.56 µM; in the experiment with A549 cells (Homo sapiens, A549, 72 h), 0.52 µM.

Turning to `COc1cc(-c2ccc3ncc(C(=O)C4CC4)c(N[C@H]4CC[C@H](CN5CCC(N(C)C)C5)CC4)c3c2)cc(Cl)c1O` (stereo partly shown) [Example 668], the 50% inhibitory concentration (IC50) on MELK was determined as 0.0039 µM; in the experiment on HT-1197 cells (setting [4]), 2.6 µM; with DU4475 cells [2] it was 1.4 µM; in the experiment on T47D cells (Homo sapiens, T47D, 72 h), 1 µM; in the experiment with A549 cells (Homo sapiens, A549, 72 h), 0.56 µM.
